# Data as given in US7279470B2 (priority 2001, dated 2007).
# Key:
# [1] = molecular target: T1, Hormone-sensitive lipase (HSL) (Homo sapiens, UniProt Q05469); assay type: biochemical; details: 10 μM concentration; percent activity relative to an un-inhibited sample (no compound); 3H-Triolein substrate, 25° C.
# T1 sequence (Q05469 1-1076): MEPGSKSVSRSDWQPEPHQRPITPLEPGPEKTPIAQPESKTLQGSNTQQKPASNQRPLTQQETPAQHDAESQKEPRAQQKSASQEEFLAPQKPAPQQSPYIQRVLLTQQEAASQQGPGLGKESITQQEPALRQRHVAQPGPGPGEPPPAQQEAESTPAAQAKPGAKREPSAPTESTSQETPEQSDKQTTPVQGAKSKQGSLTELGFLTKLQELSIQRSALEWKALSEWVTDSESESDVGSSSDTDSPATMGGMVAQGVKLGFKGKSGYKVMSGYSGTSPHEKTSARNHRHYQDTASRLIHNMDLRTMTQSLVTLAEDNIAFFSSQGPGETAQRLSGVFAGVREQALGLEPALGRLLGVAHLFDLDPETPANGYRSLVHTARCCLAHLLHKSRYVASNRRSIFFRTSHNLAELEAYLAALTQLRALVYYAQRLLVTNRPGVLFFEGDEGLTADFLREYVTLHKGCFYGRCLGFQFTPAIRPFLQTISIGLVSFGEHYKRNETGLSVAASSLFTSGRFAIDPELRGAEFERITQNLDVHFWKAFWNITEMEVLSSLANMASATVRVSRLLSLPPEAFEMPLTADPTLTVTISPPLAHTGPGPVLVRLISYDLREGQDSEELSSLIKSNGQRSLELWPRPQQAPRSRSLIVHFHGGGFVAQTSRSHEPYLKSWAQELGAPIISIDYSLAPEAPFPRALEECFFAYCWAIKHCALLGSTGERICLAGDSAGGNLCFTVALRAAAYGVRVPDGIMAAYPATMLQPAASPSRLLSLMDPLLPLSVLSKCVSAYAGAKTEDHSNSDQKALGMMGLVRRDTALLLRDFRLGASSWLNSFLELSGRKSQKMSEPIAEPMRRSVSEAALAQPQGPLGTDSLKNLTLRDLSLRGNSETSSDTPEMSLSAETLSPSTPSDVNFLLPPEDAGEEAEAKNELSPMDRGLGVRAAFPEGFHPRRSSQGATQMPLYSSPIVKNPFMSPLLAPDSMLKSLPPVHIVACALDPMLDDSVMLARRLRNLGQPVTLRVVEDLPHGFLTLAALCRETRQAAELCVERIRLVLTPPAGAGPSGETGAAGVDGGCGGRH
# Excerpt: Materials. The Hormone-sensitive lipase was provided by Dr. Cecilia Holm, from Lund University Sweden or produced and purified by Novo Nordisk (NN) using the reagents and protocols used by Dr. Holm. The substrates used are: ^3H-labeled triolein (TO) from Amersham, Buckinghamshire, U.K. cat No. TRA191; 5-20 Ci/mmol dissolved in toluene, triolein (Sigma, Cat. No. T-1740), fluorochrome-labeled triacylglyceride (cis-octadec-9-enoic acid 2-[12-(7-nitrobenzo[12,5]oxadiazol-4-ylamino)dodecanoyloxy]-1-cis-octadec-9-enoyloxymethyl-ethyl ester) prepared by Novo Nordisk (NN) by conventional methods, and 1,3-(di[^3H]-stearin), 2-(PEG-Biotin)glycerol prepared in collaboration with Amersham Pharmacia Biotech, UK and described in WO 01/073442. Phosphatidyl choline (PC) and phosphatidyl inositol (PI) are from Sigma (St Luis MO cat. Nos. P-3556 and P-5954 respectively). All other reagents are of commercial grade and obtained from various commercial sources.
# 3180.2: Assay for determination of percent inhibition by compound at 10 μM concentration. A lipid emulsion with ^3H-Triolein and phospholipid is used as substrate with a standard cencentration of highly purified HSL. BSA is added as product receptor. The substrate is prepared as follows: […]
# [2] = molecular target: T1, Hormone-sensitive lipase (HSL); assay type: biochemical; details: 10 μM sample concentration; percent activity relative to a non-inhibited sample (no compound); 30 min preincubation 25° C., 120 min at 37° C.
# Protocol: Materials. The Hormone-sensitive lipase was provided by Dr. Cecilia Holm, from Lund University Sweden or produced and purified by Novo Nordisk (NN) using the reagents and protocols used by Dr. Holm. […] All other reagents are of commercial grade and obtained from various commercial sources.
# BSA is added as product receptor. The transfer of the fluorochrome from the lipid phase to the water (BSA) phase changes the fluorescent properties of the fluorochrome. The changes can be monitored on a fluorimeter with an excitation wavelength of 450 nm and an emission wavelength of 545 nm.
# Compound and HSL (20 μL compound, 10 μL enzyme and 70 μL PED-BSA buffer) is preincubated for 30 min at 25° C. before addition of substrate (100 μL). Amount of formed product is measured after 120 min incubation at 37° C.
Compound,Test 3180.2 HSL % ACTIVITY All [1] [%],Test 3190.1 HSL_FL % ACTIVITY All [2] [%]
"N-Methyl-N-phenethyl-5-ethyl-3-(4-chlorophenyl)-[1,2,4]triazole-1-carboxamide [Example 119]",10,
CN(C(=O)Oc1ccc(OC(F)(F)C(F)(F)F)cc1)c1ccccc1 [Example 20],,51
"O=C(Oc1ccc(Oc2ccc3c(C(F)(F)F)cc(C(F)(F)F)nc3n2)cc1)N1CCOCC1 [Example 90, Morpholine-4-carboxylic acid 4-(5,7-bis-trifluoromethyl-[1,8]naphthypyridin-2-yloxy)-phenyl ester]",,24
Cc1c(Cc2ccccc2)c(=O)oc2cc(OC(=O)N3CCOCC3)ccc12 [Example 92],62,
